{"source": "patent US6071710A", "about": "“Antikinin compounds and uses thereof” (MUSC Foundation for Research Development, priority 1997, dated 2000)", "key": {"kinin B2 receptors": {"target": "T1, kinin B2 receptors (Rattus norvegicus, UniProt P25023)", "T1 construct": "endogenous in cells; host or cells: primary rat aortic vascular smooth muscle cells (male Sprague-Dawley), passage 2-4", "T1 sequence (P25023 1-396)": "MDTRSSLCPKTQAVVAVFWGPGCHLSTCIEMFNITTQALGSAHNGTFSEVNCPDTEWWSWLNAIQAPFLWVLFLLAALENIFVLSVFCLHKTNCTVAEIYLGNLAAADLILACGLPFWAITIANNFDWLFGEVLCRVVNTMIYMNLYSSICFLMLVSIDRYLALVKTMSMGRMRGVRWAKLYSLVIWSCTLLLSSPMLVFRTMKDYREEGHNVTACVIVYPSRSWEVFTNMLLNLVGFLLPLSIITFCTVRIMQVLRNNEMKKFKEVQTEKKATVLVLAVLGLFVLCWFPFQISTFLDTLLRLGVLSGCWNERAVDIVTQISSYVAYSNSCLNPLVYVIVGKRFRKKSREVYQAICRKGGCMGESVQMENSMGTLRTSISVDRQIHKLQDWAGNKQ", "assay": "[3H]bradykinin binding assay in VSMC", "conditions": "rat aortic smooth muscle cells", "procedure": "VSMC grown in 6-well plates were washed with and allowed to equilibrate with 1 ml of binding buffer (25 mM TES, 1 mM phenanthroline, 15 μM captopril, 0.1% BSA, pH 7.0). Saturation binding experiments were performed by incubating cells with [^-3 H] bradykinin (60,000 cpm/well) and varying the concentration of unlabeled bradykinin (5×10^-11 -1×10^-6 M) in binding buffer for 2 h at 4° C. Cells were washed 3 times with 2 ml of ice-cold binding buffer and solubilized for 10 min in 1% SDS, 0.1 M NaOH, 0.1 M Na2 CO3 solution and counted for radioactivity. Data were analyzed using the LIGAND program to determine the affinity constants and the receptor number."}, "[1]": {"tested_on": "spontaneously hypertensive rats", "assay": "Mean systemic arterial blood pressure after brain injection of BK fragments", "format": "in vivo, rat", "conditions": "hypertensive anesthetized rats, preliminary for BK1-7, BK2-7", "procedure": "Experiments were performed on male spontaneously hypertensive rats weighing 250-350 g. Anesthesia and surgical procedures are described (15-17). Following the surgical procedures, animals were allowed to stabilize for 30 minutes. Injections were then made unilaterally into the rostral ventral lateral medulla oblongata. In any given experiment, not more than four doses of the BK fragments were given. Successive injections were alternated between sides after an intervening period of 20 minutes. Mean arterial pressure was measured from a femoral arterial line with a transducer (Statham Laboratories, Inc. Hato Rey, Puerto Rico) and recorded using a polygraph (Grass Instrument Co., Quincy, Mass.). Values shown are the mean changes ± sem."}, "[2]": {"conditions": "published work (11); cited from earlier work"}, "[3]": {"tested_on": "endotoxin (LPS)-treated anesthetized rats", "assay": "Endotoxin (LPS) shock in anesthetized rats", "format": "in vivo, rat", "conditions": "1 μg/kg IV followed by 143 ng/kg/hr, one hour prior to LPS (12 mg/kg IV); vs vehicle/LPS", "procedure": "Male Sprague-Dawley rats (220-480 g) were anesthetized with inactin (120 mg/kg, IP). The trachea was cannulated and the animal was allowed to breath 100% O2. Polyvinyl cannulas (Norton Plastics, Akron, Ohio) were inserted into the jugular vein and the femoral artery for the purposes of infusion of saline and agents and for monitoring of blood pressure, respectively, as described for FIGS. 2 and 3. Heart rate was monitored by tachograph and body temperature was maintained at 37° C. After a 2 hour period of equilibration with saline infusion (0.25 ml/hr), peptides (1 μg/kg followed by 143 ng/kg/hr) or saline were administered, followed one hour later by LPS (12 mg/kg). Time of death was taken as time after administration of LPS when there was no longer a detectable ECG. Values shown are the mean ± sem from the indicated number of studies and were compared using either t-test (FIG. 12A) or ANOVA with Fisher's post-hoc t-test (FIG. 12B)."}, "[4]": {"conditions": "cited from earlier work"}}, "note": "Entries after “also recorded” stand apart in the source; their conditions may differ. Where no end group is shown, it is not given here."}
{"compound": "NC(N)=NCCC[C@@H](N)C(=O)N[C@@H](CCCN=C(N)N)C(=O)N1CCC[C@H]1C(=O)N1C[C@H](O)C[C@H]1C(=O)NCC(=O)N[C@@H](Cc1cccs1)C(=O)N[C@@H](CO)C(=O)N1Cc2ccccc2C[C@@H]1C(=O)N1[C@H](C(=O)N[C@@H](CCCN=C(N)N)C(=O)O)C[C@@H]2CCCC[C@@H]21", "note": "[HOE140]", "values": [{"measurement": "displacement of specific binding of bradykinin to kinin B2 receptors", "setting": "kinin B2 receptors", "value": "specifically displaced"}]}
{"compound": "BK2-7: bradykinin fragment PPGFSP (Bradykinin; UniProt P01042 382-387, looked up, fragment)", "values": [{"measurement": "systemic mean arterial pressure (MAP) response", "setting": "[1]", "value": "affect systemic blood pressure"}]}
{"compound": "RPPGF [RPPGF, Arg-Pro-Pro-Gly-Phe]", "values": [{"measurement": "stability in human plasma", "setting": "[2]", "value": "highly stable in human plasma"}]}
{"compound": "RPPGFSPFR [bradykinin]", "values": [{"measurement": "survival time", "setting": "[3]", "value": "did not prolong life; also recorded: does not provide protection"}, {"measurement": "plasma half-life", "setting": "[4]", "value": "~ 15 secs."}]}
{"compound": "des-arg9-bradykinin (RPPGFSPF; Bradykinin; UniProt P01042 381-388, looked up, fragment)", "values": [{"measurement": "displacement of specific binding of bradykinin to kinin B2 receptors", "setting": "kinin B2 receptors", "value": "not displaced"}]}
